In patent US20110151034A1, “ANTIBACTERIAL AGENT AND DISINFECTING METHOD” (Mitsubishi Chemical Corporation, priority 2008, published 2011):

How the values were obtained:
[1] = system: Listeria monocytogenes ATCC49594; assay: Antibacterial test in BHI culture medium: turbidity, inhibitory ratio and bacteria growth (Experimental Example 2); assay type: cell-based; conditions: for Number of bacteria (cfu/ml): culture 30° C. 24 hours, then BHI agar 37° C. 24 hours; for Inhibitory ratio (%): from turbidity vs dimethylsulfoxide standard; for Inhibitory ratio (%) / Turbidity of culture fluid: 30° C. for 24 hours; for Turbidity of culture fluid: 660 nm
Procedure: The above obtained isolated components were diluted with dimethylsulfoxide (manufactured by KANTO CHEMICAL CO., INC.) to prepare three test liquids at fraction concentrations (wt %) of 2%, 1% and 0.5%. As positive controls, erythromycin (manufactured by Wako Pure Chemical Industries Ltd.) was dissolved in ethanol (Junsei Chemical Co., Ltd.) to have a concentration of 1,000 ppm, 500 ppm or 250 ppm. As a negative control, sterilized water was used.
The antibacterial test was carried out by using Listeria monocytogenes ATCC49594 as follows.
(1) 8.9 ml of a brain heart infusion (BHI) culture medium (manufactured by NISSUI PHARMACEUTICAL CO., LTD.) was put in a test tube and treated in an autoclave (manufactured by TOMY SEIKO CO., LTD., TOMY BS-325). The culture medium concentration was adjusted to achieve a specified concentration when 0.1 ml of the above test liquid was added.
Listeria monocytogenes ATCC 49594 was cultured in the BHI culture medium by shake culture at 37° C. for 1 hour and diluted to an appropriate bacteria concentration (2.0×10^3 cfu/ml) by the BHI culture medium.
To the test tube in which 8.9 ml of the BHI culture medium prepared in the above (1) was put, 0.1 ml of the prepared test liquid and 1 ml of the bacteria liquid prepared in the above (2) were added, stirred and left at rest at 30° C. for 24 hours.
The turbidity of the culture fluid in the test tube left at rest at 30° C. for 24 hours was measured by a turbidimeter (manufactured by TAITEC CORPORATION, miniphoto 518R) at a wavelength of 660 nm. The inhibitory ratio was calculated from the following formula, where A is the turbidly in the case of a culture fluid to which 0.1 ml of dimethylsulfoxide was added instead of the test liquid.
Inhibitory ratio (%)=[(A−[turbidity of culture fluid])/A]×100
The culture fluid in the test tube left at rest at 30° C. for 24 hours was diluted with a phosphate buffer solution (PBS) and smeared on a BHI agar medium. After culturing at 37° C. for 24 hours, the number of bacteria on the agar medium was measured by observation with a microscope. With respect to the dilution with PBS, the culture fluid was preliminarily properly diluted within a range of from 10^2 to 10^9 times to such a concentration that the number of bacteria can be counted with a microscope 24 hour later (the number of bacteria 24 hours later was calibrated in accordance with the proportion preliminarily diluted with PBS).

[2] = system: Listeria monocytogenes JCM2873; assay: Antibacterial test, colony formation on Mueller Hinton agar after culture with sample (Experimental Example 1); assay type: cell-based; conditions: 10 ppm at the time of test; 37° C. for 24 hours, then agar 37° C. for 2 days; negative control 3×10^8 cfu/ml
Procedure: The components (Terpenoid-1 and Terpenoid-2) isolated from the water-insoluble rosemary extract were dissolved in DMSO (dimethylsulfoxide) at a concentration of 2,000 ppm to obtain samples for antibacterial activity test. The antibacterial test was carried out as follows using Listeria monocytogenes JCM2873. 8.95 ml of Mueller Hinton Broth (MHB) culture medium was put in a test tube and sterilized in an autoclave. The culture medium concentration was adjusted to achieve a specified concentration when 50 μl of the sample was added. Listeria monocytogenes JCM2873 was cultured by shake culture at 37° C. for 1 day in the MHB culture medium, and diluted to an appropriate bacteria concentration (3.1×10^4 cfu/ml) by the MHB culture medium. To the test tube in which 8.95 ml of the MHB culture medium prepared in the above (1) was put, 50 μl of the sample and 1 ml of the bacteria liquid prepared in the above (2) were added and stirred (isolated component concentration at the time of test: 10 ppm) and left at rest at 37° C. for 24 hours. As a negative control and a positive control, sterilized water and erythromycin (solution at a concentration of 2,000 ppm in ethanol) were added instead of the sample. From the test tube left at rest at 37° C. for 24 hours, a loopful of the culture fluid was collected and smeared on a Mueller Hinton agar medium. After culturing at 37° C. for 2 days, formation of colonies on the agar medium and its degree were judged.

[3] = 50, 100, 200 ppm, same conditions as for Terpenoid-1 and Terpenoid-2
[4] = at a concentration of 50 ppm or higher

Compound | antibacterial activity against Listeria monocytogenes (in words) [1, 3] | Number of bacteria (cfu/ml) ([1]; added substance 50 ppm) | Inhibitory ratio (%) ([1]; added substance 50 ppm) | Number of bacteria (cfu/ml) ([1]; added substance 100 ppm) | Inhibitory ratio (%) ([1]; added substance 100 ppm) | Number of bacteria (cfu/ml) ([1]; added substance 200 ppm) | Inhibitory ratio (%) ([1]; added substance 200 ppm) | formation of colonies on the agar medium [2] | other results
CCO[C@H]1c2cc(C(C)C)c(O)c(O)c2[C@@]23CCCC(C)(C)[C@@H]2[C@@H]1OC3=O [7α-Ethoxyrosmanol, 7α-ethoxyrosmanol] | low or no antibacterial activity | 2.5 × 10^9 cfu/ml | 4.0 | 3.6 × 10^9 cfu/ml | 0.5 | 3.8 × 10^9 cfu/ml | 2.6 | – | –
CC(C)c1cc2c(c(O)c1O)[C@@]13CCCC(C)(C)[C@@H]1[C@H](OC3=O)[C@H]2O [Rosmanol] | low or no antibacterial activity | 3.9 × 10^9 cfu/ml | 10.2 | 3.7 × 10^9 cfu/ml | 5.1 | 3.9 × 10^9 cfu/ml | 16.0 | – | –
CC(C)c1cc2c(cc1O)[C@@]1(C)CCCC(C)(C)[C@@H]1CC2 [Terpenoid-1, ferruginol] | – | 3.8 × 10^9 cfu/ml | 4.6 | 1.6 × 10^9 cfu/ml | 43.0 | 3.8 × 10^6 cfu/ml | 100 | no formation of colonies | Turbidity of culture fluid ([1]; added substance 50 ppm): 0.485; Turbidity of culture fluid ([1]; added substance 100 ppm): 0.290; Turbidity of culture fluid ([1]; added substance 200 ppm): −0.003; antibacterial activity against Listeria monocytogenes (in words) [1, 4]: confirmed to have antibacterial activity
CC(C)c1cc2c(c(O)c1O)[C@@]13CCCC(C)(C)[C@@H]1C[C@@H]2OC3=O [Carnosol] | low or no antibacterial activity | 4.3 × 10^9 cfu/ml | 0.0 | 4.7 × 10^9 cfu/ml | 0.0 | 3.9 × 10^9 cfu/ml | 0.0 | – | –
CC(C)c1cc2c(cc1O)[C@H]1CCCC(C)(C)[C@@H]1CC2 [Terpenoid-2] | – | 4.4 × 10^9 cfu/ml | 7.2 | 2.5 × 10^9 cfu/ml | 21.0 | 1.3 × 10^9 cfu/ml | 47.2 | no formation of colonies | Turbidity of culture fluid ([1]; added substance 50 ppm): 0.472; Turbidity of culture fluid ([1]; added substance 100 ppm): 0.402; Turbidity of culture fluid ([1]; added substance 200 ppm): 0.268; antibacterial activity against Listeria monocytogenes (in words) [1, 4]: confirmed to have antibacterial activity
COc1c(C(C)C)cc2c(c1O)C1(C(=O)O)CCCC(C)(C)C1CC2 (stereo not drawn) [12-Methoxy-tarns-carnosic acid, 12-methoxy-trans-carnosic acid] | low or no antibacterial activity | 3.1 × 10^9 cfu/ml | 11.8 | 4.1 × 10^9 cfu/ml | 17.7 | 4.3 × 10^9 cfu/ml | 20.6 | – | –
C=C(C)[C@@H]1CC[C@]2(C(=O)O)CC[C@]3(C)[C@H](CC[C@@H]4[C@@]5(C)CC[C@H](O)C(C)(C)[C@@H]5CC[C@]43C)[C@@H]12 [Betulinic acid] | – | 4.0 × 10^9 cfu/ml | 0.0 | 4.5 × 10^9 cfu/ml | 0.0 | 3.0 × 10^9 cfu/ml | 0.0 | – | –
CC[C@H]1OC(=O)[C@H](C)[C@@H](O[C@H]2C[C@@](C)(OC)[C@@H](O)[C@H](C)O2)[C@H](C)[C@@H](O[C@@H]2O[C@H](C)C[C@H](N(C)C)[C@H]2O)[C@](C)(O)C[C@@H](C)C(=O)[C@H](C)[C@@H](O)[C@]1(C)O [Erythromycin, erythromycin] | – | – | – | – | – | – | – | no formation of colonies | Turbidity of culture fluid ([1]; added substance 2.5 ppm): 0.011; Number of bacteria (cfu/ml) ([1]; added substance 2.5 ppm): 3.7 × 10^2 cfu/ml; Inhibitory ratio (%) ([1]; added substance 2.5 ppm): 97.8%; Turbidity of culture fluid ([1]; added substance 5 ppm): 0.022; Number of bacteria (cfu/ml) ([1]; added substance 5 ppm): 9.5 × 10^2 cfu/ml; Inhibitory ratio (%) ([1]; added substance 5 ppm): 95.6%; Turbidity of culture fluid ([1]; added substance 10 ppm): −0.008; Number of bacteria (cfu/ml) ([1]; added substance 10 ppm): 1.8 × 10^2 cfu/ml; Inhibitory ratio (%) ([1]; added substance 10 ppm): 98.4%; antibacterial property (in words) ([1]; concentration range of from 2.5 to 10 ppm): high antibacterial property
CC(C)c1cc2c(c(O)c1O)[C@@]13CCCC(C)(C)[C@@H]1[C@H](OC3=O)[C@@H]2O [Epirosmanol] | low or no antibacterial activity | 4.0 × 10^9 cfu/ml | 0.0 | 4.2 × 10^9 cfu/ml | 0.0 | 3.2 × 10^9 cfu/ml | 0.0 | – | –
